Read-outs that look alike come from different tables or passages of the source.
Assays:
[1] = biological target: T1, recombinant human sEH (Homo sapiens, UniProt P34913); assay: biochemical; settings: PHOME substrate, 37 °C, 60 min, mean ± SD (n = 3); read-out: IC50 (sEH inhibitory effect)
T1 sequence (P34913 1-555): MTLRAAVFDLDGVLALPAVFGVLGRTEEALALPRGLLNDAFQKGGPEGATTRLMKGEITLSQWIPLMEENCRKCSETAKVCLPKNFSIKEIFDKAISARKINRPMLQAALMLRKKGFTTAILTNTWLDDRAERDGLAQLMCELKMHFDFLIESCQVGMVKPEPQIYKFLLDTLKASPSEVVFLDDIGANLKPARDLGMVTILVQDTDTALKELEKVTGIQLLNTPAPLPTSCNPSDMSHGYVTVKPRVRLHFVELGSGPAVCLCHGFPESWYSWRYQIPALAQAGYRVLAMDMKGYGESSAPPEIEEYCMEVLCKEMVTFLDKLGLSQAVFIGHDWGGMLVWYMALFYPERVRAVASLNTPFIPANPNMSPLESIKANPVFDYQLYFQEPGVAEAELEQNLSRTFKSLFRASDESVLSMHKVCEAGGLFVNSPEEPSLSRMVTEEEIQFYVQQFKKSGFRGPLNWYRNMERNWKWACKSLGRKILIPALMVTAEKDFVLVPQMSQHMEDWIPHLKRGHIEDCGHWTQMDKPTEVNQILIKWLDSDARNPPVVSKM
Method: Bis-Tris (B9754) was purchased from Sigma-Aldrich (St. Louis, MO, USA).
The sEH inhibition assay was performed as described in a previous study, with slight modifications. In 96-well plates, separate mixtures were prepared for each test compound, containing 130 µL of sEH in Bis-Tris buffer with HCl (pH 7.0, containing 0.1% bovine serum albumin) and 20 µL of the test compound (10 mM, diluted in DMSO). Subsequently, 50 µL of PHOME, which serves as a substrate, was added to each well. The mixtures were then incubated at 37 °C, and fluorescence was monitored using the VICTOR Nivo multimode plate reader (PerkinElmer, Waltham, MA, USA) for 60 min, with excitation and emission wavelengths of 330 nm and 460 nm, respectively. […] The inhibitory activity was calculated using the following equation:Inhibitory activity (%) = [1 − (ΔI/ΔC)] × 100%, where ΔI and ΔC are the fluorescence readings of the inhibitor and the control after 60 min, respectively. IC50 values were calculated using SigmaPlot 10.0 (Systat Software, CA, USA). Data are presented as means ± standard deviations from three independent experiments (n = 3, p < 0.05).

[2] = test system: sEH; settings: cited from earlier work
[3] = biological target: T1, recombinant human sEH; assay: Enzyme kinetics of sEH inhibition (Lineweaver-Burk and Dixon plots); format: biochemical; settings: for Ki: Determined using Dixon plots, read-out: Ki (inhibition constant); for Inhibition Type: Determined using Lineweaver-Burk plots, PHOME 0.1-0.8 mM
Method: The inhibition type of a compound provides insight into how it interacts with the enzyme. […] PHOME concentrations of 0.1, 0.2, 0.4, and 0.8 mM were used, along with compound 3 concentrations of 0, 15, 30, 60, and 90 µM, and compound 9 concentrations of 0, 20, 40, 60, and 100 µM. In the Lineweaver–Burk method, competitive and non-competitive inhibition is indicated by a series of straight lines intersecting at the same point on the y- and x-axes, respectively. […] In most cases, this implies that these inhibitors bind to an allosteric site on the enzyme rather than the active site, thereby preventing the enzyme from functioning regardless of the substrate concentration.
The inhibition constant (Ki) is a measure of the binding affinity of the inhibitor for the enzyme, with a lower value indicating a stronger affinity. Dixon plots were used to determine the Ki values for the compounds.
Enzyme kinetics were analyzed using Lineweaver–Burk and Dixon plots. This approach helped determine the mode of inhibition and the inhibition constant (Ki) at various substrate concentrations, both in the absence (0 μM) and presence of inhibitors. Data were plotted using Microsoft Excel 365.

[4] = protostane-type triterpenoids from Alisma orientale, read-out: IC50 (sEH inhibition)

Row | Compound | IC50 [1] [µM] | also measured
1 | C=C1CCC2(O)C(=C)COC2C=C(C)CCC2OC2(C)CCC1O (stereo not drawn) [Compound 4, sinumaximol D] | > 100 | 
2 | C=C(C)[C@H]1C/C=C(\C(=O)OC)CC(=O)C[C@@](C)(O)[C@@H](O)C2=CC(C(=O)OC)=C(C1)O2 [Compound 1, sinumaximol A] | > 100 | 
3 | C=C1CCC2=C(C)COC2C=C(C)CCC(O)C(C)(O)CCC1O (stereo not drawn) [Compound 8, sinumaximol H] | > 100 | 
4 | 3β-hydroxy-25-anhydro-alisol F |  | IC50 [2, 4]: 10.1 ± 1.12 µM
5 | C=C(C)[C@@H](O)[C@@H](O)C[C@@H](C)C1=C2CC[C@H]3[C@@]4(C)CCC(=O)C(C)(C)[C@@H]4CC[C@]3(C)[C@@]2(C)CC1 [11-deoxy-25-anhydro alisol E] |  | IC50 ([2]; protostane-type triterpenoids, read-out: IC50 (sEH inhibitory effects)): 5.94 ± 0.54 µM
6 | CC1=CC2OC(=O)C(C)=C2CCC(C)(O)C=CCC(C)(O)C(O)CC1 (stereo not drawn) [Compound 7, sinumaximol G] | > 100 | 
7 | C=C(C)C1CC=C(C(=O)OC)CC(=O)CC(C)(O)C=C2C=C(C(=O)OC)C(OC)(C1)O2 (stereo not drawn) [Compound 9, sethukarailin] | 78.8 ± 2.26 | Ki [3]: 55 µM; Inhibition Type [3]: Non-competitive
8 | CC1=CC2OCC(C)(O)C2=CCC(C)(O)C=CCC2(C)OC2CC1 (stereo not drawn) [Compound 6, sinumaximol F] | > 100 | 
9 | C=C(C)C1CCC23OC2C(CC(C)(O)C=C2C=C(C(=O)OC)C(OC)(C1)O2)OC3=O (stereo not drawn) [Compound 3, sinumaximol C] | 70.7 ± 1.44 | Ki [3]: 59.4 µM; Inhibition Type [3]: Non-competitive
10 | C[C@@H]1CC[C@]2(C(=O)O)CC[C@]3(C)C(=CC[C@@H]4[C@@]5(C)CC(=O)[C@H](O)C(C)(C)[C@@H]5CC[C@]43C)[C@@H]2[C@]1(C)O [2-oxopomolic acid] |  | IC50 ([2]; triterpenoid from Malus domestica, read-out: IC50 (sEH inhibitory activity)): 11.4 ± 2.7 µM
11 | 3β-hydroxy-alisol G |  | IC50 [2, 4]: 30.4 ± 2.65 µM
12 | C=C(C)[C@H]1CCC2=C[C@@H](C[C@@]3(C)CC(=O)[C@H](CC(=O)C1)O3)OC2=O [Compound 10, 5-epinorcembrene] | > 100 | 
13 | C=C1CC=C2C(C=C(C)CCC3OC3(C)CCC1O)OCC2(C)O (stereo not drawn) [Compound 5, sinumaximol E] | > 100 | 
14 | C=C(C)C1CCC2=CC(CC(C)(O)C(O)C3=CC(C(=O)OC)=C(C1)O3)OC2=O (stereo not drawn) [Compound 2, sinumaximol B] | > 100 | 

Reference: PMC11355918, “Inhibition of Soluble Epoxide Hydrolase by Cembranoid Diterpenes from Soft Coral Sinularia maxima: Enzyme Kinetics, Molecular Docking, and Molecular Dynamics” (Marine Drugs, 2024)
